Measurements taken from ChEMBL document CHEMBL1201862, “PubChem BioAssay data set” (2004).
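Protocol summary: plate cells (96-well), add compound at 5 concentrations, incubate 48 h, interpolate endpoints linearly. Abbreviation: GI50, concentration required for 50% inhibition of growth.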 Activity calls are given as the source filed them. Cut-off read from the data, not from the text of the source: active = GI50 up to about 1.1 µM and inactive = higher.

Assays:
Assay in all cases: NCI-60 cell line screen, 48 h
[1] = system: 786-0
[2] = system: ACHN
[3] = system: CCRF-CEM
[4] = system: DMS-273
[5] = system: HOP-62
[6] = system: HT-29
[7] = system: Malme-3M
[8] = system: NCI-H460
[9] = system: NCI-H522
[10] = system: OVCAR-4
[11] = system: OVCAR-5
[12] = system: OVCAR-8
[13] = system: RXF 393
[14] = system: SF-295
[15] = system: SK-MEL-28
[16] = system: SW-620

Measured: GI50

COc1cc(C(C#N)NNc2nc(C)cc(O)n2)cc(OC)c1OC (stereo not given)
inactive: [1] > 100 µM | [2] > 100 µM | [3] > 100 µM | [4] > 100 µM | [5] > 100 µM | [6] > 100 µM | [7] > 100 µM | [8] > 100 µM | [9] > 100 µM | [10] > 100 µM | [11] > 100 µM | [12] > 100 µM | [13] > 100 µM | [14] > 100 µM | [15] > 100 µM | [16] > 100 µM

CNC(=O)CN(CC(N)=O)C(=O)NC
inactive: [1] > 100 µM | [2] > 100 µM | [3] > 100 µM | [4] > 100 µM | [5] > 100 µM | [6] > 100 µM | [7] > 100 µM | [8] > 100 µM | [9] > 100 µM | [10] > 100 µM | [11] > 100 µM | [12] > 100 µM | [13] > 100 µM | [14] > 100 µM | [15] > 100 µM | [16] > 100 µM

C=C1C(C(=O)O)C1C(=O)O (stereo not given)
inactive: [1] > 100 µM | [2] > 100 µM | [3] > 100 µM | [4] > 100 µM | [5] > 100 µM | [6] > 100 µM | [7] > 100 µM | [8] > 100 µM | [9] > 100 µM | [10] > 100 µM | [11] > 100 µM | [12] > 100 µM | [13] > 100 µM | [14] > 100 µM | [15] > 100 µM | [16] > 100 µM

COC(=O)C(=O)C(C(=O)OC)C(=O)C(=O)Nc1cc(Cl)c(C)cc1S(=O)(=O)O (stereo not given)
inactive: [1] > 100 µM | [2] > 100 µM | [3] > 100 µM | [4] > 100 µM | [5] > 100 µM | [6] > 100 µM | [7] > 100 µM | [8] > 100 µM | [9] > 100 µM | [10] > 100 µM | [11] > 100 µM | [12] > 100 µM | [13] > 100 µM | [14] > 100 µM | [15] > 100 µM | [16] > 100 µM

O=C(Nc1ccc(Cl)cc1)c1cccc([N+](=O)[O-])c1O
inactive: [1] 3.88 µM | [2] 2.85 µM | [3] 2.06 µM | [4] 3.13 µM | [5] 1.98 µM | [6] 4.25 µM | [7] 1.37 µM | [8] 2.1 µM | [9] 1.98 µM | [10] 4.07 µM | [11] 12 µM | [12] 4.39 µM | [13] 1.78 µM | [14] 3.29 µM | [15] 4.99 µM | [16] 4.81 µM

CCCN(CCC)C(=O)Cc1c2n(c3ccccc13)CCCc1ccccc1-2
inactive: [1] 16.9 µM | [2] 12.6 µM | [3] 17.4 µM | [4] 11 µM | [5] 16.4 µM | [6] 13.2 µM | [7] 13.9 µM | [8] 15.6 µM | [9] 12.6 µM | [10] 13.3 µM | [12] 16.3 µM | [13] 10.4 µM | [14] 10.6 µM | [15] 16.3 µM | [16] 16.6 µM

O=c1c(O)c(-c2ccc(O)c(O)c2)oc2cc(O)cc(O)c12 [QUERCETIN]
inactive: [1] 59.8 µM | [2] > 100 µM | [3] 30.8 µM | [4] 49.7 µM | [5] 46.1 µM | [7] > 100 µM | [8] 36.6 µM | [9] 84.3 µM | [10] > 100 µM | [11] > 100 µM | [12] 72.6 µM | [13] 55.7 µM | [14] 50.7 µM | [15] 94.6 µM | [16] 20.3 µM
